# Measured values published in US8916565B2, “Pyrrolopyrazine-spirocyclic piperidine amides as modulators of ion channels” (priority 2011, dated 2014).
# Target: human NaV subtype, like NaV 1.7 (Homo sapiens, UniProt Q15858)
# Test: E-VIPR optical membrane potential assay with electrical stimulation
# Type: cell-based
# Details: active against one or more sodium channels; Table 3 does not name the assay or NaV subtype; read-out: Binned Activity Data (IC50)
# human NaV subtype, like NaV 1.7, sequence (Q15858 whole entry): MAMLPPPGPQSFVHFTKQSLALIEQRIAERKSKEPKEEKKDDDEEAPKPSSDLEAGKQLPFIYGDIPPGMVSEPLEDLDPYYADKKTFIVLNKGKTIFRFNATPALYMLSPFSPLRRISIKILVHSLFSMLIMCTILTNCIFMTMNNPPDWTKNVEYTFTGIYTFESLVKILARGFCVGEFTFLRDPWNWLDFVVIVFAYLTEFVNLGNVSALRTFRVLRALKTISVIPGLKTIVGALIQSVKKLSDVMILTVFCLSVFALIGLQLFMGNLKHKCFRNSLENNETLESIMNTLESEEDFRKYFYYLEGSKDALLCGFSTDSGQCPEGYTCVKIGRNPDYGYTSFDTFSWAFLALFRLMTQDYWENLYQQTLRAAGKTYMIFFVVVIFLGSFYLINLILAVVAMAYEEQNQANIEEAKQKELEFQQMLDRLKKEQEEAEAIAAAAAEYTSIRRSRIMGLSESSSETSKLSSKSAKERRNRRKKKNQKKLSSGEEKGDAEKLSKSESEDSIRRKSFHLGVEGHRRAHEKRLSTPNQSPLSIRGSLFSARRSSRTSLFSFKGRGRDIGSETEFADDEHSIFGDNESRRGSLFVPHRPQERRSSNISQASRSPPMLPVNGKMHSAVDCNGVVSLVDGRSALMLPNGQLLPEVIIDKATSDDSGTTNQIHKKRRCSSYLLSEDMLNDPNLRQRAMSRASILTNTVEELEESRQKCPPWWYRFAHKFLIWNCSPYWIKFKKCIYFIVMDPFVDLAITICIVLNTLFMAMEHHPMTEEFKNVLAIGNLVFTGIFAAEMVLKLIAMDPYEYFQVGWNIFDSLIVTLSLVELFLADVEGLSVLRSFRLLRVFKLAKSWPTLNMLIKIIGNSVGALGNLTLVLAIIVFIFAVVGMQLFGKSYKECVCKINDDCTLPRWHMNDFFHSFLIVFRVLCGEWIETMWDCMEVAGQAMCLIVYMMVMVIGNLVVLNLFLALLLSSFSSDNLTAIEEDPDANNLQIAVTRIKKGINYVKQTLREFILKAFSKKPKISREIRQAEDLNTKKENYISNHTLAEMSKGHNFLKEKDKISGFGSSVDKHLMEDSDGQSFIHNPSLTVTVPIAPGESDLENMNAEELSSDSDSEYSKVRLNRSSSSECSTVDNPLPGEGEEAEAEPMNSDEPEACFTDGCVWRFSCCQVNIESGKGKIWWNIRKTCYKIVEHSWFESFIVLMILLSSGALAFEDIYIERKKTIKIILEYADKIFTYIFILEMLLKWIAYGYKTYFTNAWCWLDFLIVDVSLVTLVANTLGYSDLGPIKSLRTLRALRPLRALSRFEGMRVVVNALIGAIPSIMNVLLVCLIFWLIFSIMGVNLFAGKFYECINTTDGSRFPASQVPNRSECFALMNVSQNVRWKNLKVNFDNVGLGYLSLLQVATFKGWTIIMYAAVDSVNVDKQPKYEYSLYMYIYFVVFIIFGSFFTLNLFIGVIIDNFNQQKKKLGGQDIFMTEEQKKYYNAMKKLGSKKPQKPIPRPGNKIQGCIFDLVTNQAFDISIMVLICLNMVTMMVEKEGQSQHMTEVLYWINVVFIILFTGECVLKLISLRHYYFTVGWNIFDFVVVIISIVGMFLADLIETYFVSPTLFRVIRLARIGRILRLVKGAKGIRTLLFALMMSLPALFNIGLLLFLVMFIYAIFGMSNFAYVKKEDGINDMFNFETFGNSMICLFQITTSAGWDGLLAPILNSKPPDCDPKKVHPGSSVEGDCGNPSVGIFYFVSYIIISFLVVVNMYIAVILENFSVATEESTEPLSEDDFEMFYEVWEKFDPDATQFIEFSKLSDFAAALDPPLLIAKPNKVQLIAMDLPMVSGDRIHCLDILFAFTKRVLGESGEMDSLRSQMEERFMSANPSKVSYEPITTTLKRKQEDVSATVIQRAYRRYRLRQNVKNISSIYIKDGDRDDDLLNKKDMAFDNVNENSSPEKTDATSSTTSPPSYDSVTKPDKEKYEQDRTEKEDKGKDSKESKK
row,IC50 [nM],SMILES
1,2000 to 5000,CNC(=O)N1CCn2c(C(F)(F)F)ccc2C12CCN(C(=O)c1ccc(OC(C)C)cc1F)CC2 [Compound 474]
2,≤ 2000,Cc1cc(C(=O)N2CC[C@]3(c4ccc(C(F)(F)F)n4CCN3C)[C@H](F)C2)ccc1OC(C)C [Compound 475]
3,≤ 2000,Cc1cc(C(=O)N2CCC3(CC2)c2ccc(C(=O)C4CC4)n2CCN3C)ccc1O [Compound 476]
4,≤ 2000,CC(C)Oc1ccc(C(=O)N2CCC3(CC2)NCCn2c(C(F)(F)F)ccc23)cc1F [Compound 477]
5,> 5000,Cc1cc(C(=O)N2CCC3(CC2)c2ccc(C(=O)C(F)(F)F)n2CCN3C)ccc1-c1ccnn1C [Compound 478]
6,2000 to 5000,CCCN(CCC)S(=O)(=O)c1ccc(C(=O)N2CCC3(CC2)c2ccc(Cl)n2CCN3C)cc1 [Compound 479]
7,≤ 2000,COc1cc(C(=O)N2CCC3(CC2)NC(C)(C)Cn2c(C(=O)C(F)(F)F)ccc23)ccc1COCCC(F)(F)F [Compound 480]
8,≤ 2000,CCNc1ccnc2c(C(=O)N3CCC4(CC3)c3ccc(C(F)(F)F)n3CCN4C)cnn12 [Compound 481]
9,2000 to 5000,CCS(=O)(=O)c1ccc(C(=O)N2CCC3(CC2)c2ccc(C(=O)C(C)(C)C)n2CCN3C)cc1C [Compound 482]
10,≤ 2000,COc1cc(C(=O)N2CCC3(CC2)c2c(F)cc(C(F)(F)F)n2CCN3C)ccc1OC(C)(C)C [Compound 483]
11,≤ 2000,COc1ccc(C(=O)N2CCC3(CC2)c2ccc(C(=O)C4CC4)n2CCN3C)cc1Cl [Compound 484]
12,≤ 2000,COc1ccc(C(=O)N2CCC3(CC2)c2ccc(C(=O)C(F)(F)F)n2C[C@H](C)N3C)nc1C [Compound 485]
13,≤ 2000,CC(C)CS(=O)(=O)c1ccc(C(=O)N2CCC3(CC2)c2ccc(C(F)(F)F)n2CCN3C)cc1 [Compound 486]
14,≤ 2000,Cc1cc(C(=O)N2CCC3(CC2)c2ccc(C(=O)C(F)(F)F)n2CCN3C)ccc1C1(O)CCCC1 [Compound 487]
15,≤ 2000,CC(C)Oc1ccc(C(=O)N2CCC3(CC2)c2ccc(C(F)(F)F)n2CCN3C)cc1 [Compound 488]
16,≤ 2000,CCn1cnc(-c2ccc(C(=O)N3CCC4(CC3)c3ccc(C(=O)C(F)(F)F)n3CCN4C)cc2C)c1 [Compound 489]
17,≤ 2000,COc1ccc(C(=O)N2CCC3(CC2)NC(C)(C)Cn2c(C(=O)C(F)(F)F)ccc23)nc1C [Compound 490]
18,≤ 2000,CC1(C)Cn2c(C(=O)C(F)(F)F)ccc2C2(CCN(C(=O)c3ccc(O)c(Cl)c3)CC2)N1 [Compound 491]
19,≤ 2000,Cc1cc(C(=O)N2CCC3(CC2)c2ccc(C(F)(F)F)n2CCN3C2CC2)ccc1S(=O)(=O)C(C)C [Compound 492]
20,≤ 2000,COc1ccc(C(=O)N2CCC3(CC2)c2ccc(C(=O)C4(C)CC4)n2CCN3C)cc1Cl [Compound 493]
21,≤ 2000,CN1CCn2c(C(=O)C(F)(F)F)ccc2C12CCN(C(=O)c1ccc(OCC(C)(C)C)cc1)CC2 [Compound 494]
22,≤ 2000,Cc1cc(C(=O)N2CCC3(CC2)N[C@@H](C)Cn2c(C(F)(F)F)ccc23)ccc1OC(C)C [Compound 495]
23,2000 to 5000,CN1CCn2c(C(=O)C(F)(F)F)ccc2C12CCN(C(=O)c1ccc(S(=O)(=O)C3CC3)cc1)CC2 [Compound 496]
24,> 5000,COc1ccc(C(=O)N2CCC3(CC2)NCCn2c(C(F)(F)F)ccc23)cc1 [Compound 497]
25,≤ 2000,Cc1cc(S(=O)(=O)C(C)C)ccc1C(=O)N1CCC2(CC1)c1ccc(C(F)(F)F)n1CCN2C [Compound 498]
26,≤ 2000,CN1CCn2c(C(F)(F)F)ccc2C12CCN(C(=O)c1ccc(CC(C)(C)O)cc1)CC2 [Compound 499]
27,≤ 2000,CC(C)S(=O)(=O)c1ccc(C(=O)N2CCC3(CC2)c2ccc(C(=O)C(F)(F)F)n2C[C@H](C)N3C)cc1 [Compound 500]

row,IC50 [nM],SMILES
1,≤ 2000,CC(C)COc1ccc(C(=O)N2CCC3(CC2)c2ccc(C(=O)C(F)(F)F)n2CCN3C)cc1 [Compound 501]
2,> 5000,CN1CCn2c(C(=O)C(F)(F)F)ccc2C12CCN(C(=O)c1ccc(S(=O)(=O)C(C)(C)C)cc1)CC2 [Compound 502]
3,≤ 2000,COc1ccc(C(=O)N2CCC3(CC2)NCC(C)n2c(C(=O)C(F)(F)F)ccc23)nc1C (centres unmarked) [Compound 503]
4,> 5000,CC(=O)c1ccc2n1CCN(C)C21CCN(C(=O)c2ccc(N3CCCCC3)cc2)CC1 [Compound 504]
5,≤ 2000,CC1CNC2(CCN(C(=O)c3ccc(COCCC(F)(F)F)cc3)CC2)c2ccc(C(=O)C(F)(F)F)n21 (centres unmarked) [Compound 505]
6,2000 to 5000,COc1cc(C(=O)N2CCC3(NCCn4c(C(F)(F)F)ccc43)C(C)C2)ccc1OC(C)C (centres unmarked) [Compound 506]
7,> 5000,CCCOc1ccc(C(=O)N2CCC3(CC2)c2ccc(C(C)=O)n2CCN3C)cc1 [Compound 507]
8,≤ 2000,Cc1cc(C(=O)N2CCC3(CC2)c2ccc(C(=O)C(F)(F)F)n2CCN3C)ccc1S(=O)(=O)C(C)C [Compound 508]
9,≤ 2000,CC1(C)Cn2c(C(=O)C(F)(F)F)ccc2C2(CCN(C(=O)c3ccc(OCC4CC4)c(F)c3)CC2)N1 [Compound 509]
10,≤ 2000,CCOc1ccc(C(=O)N2CCC3(CC2)c2ccc(C(=O)C(F)(F)F)n2CCN3C)cc1OCC [Compound 510]
11,> 5000,CCC(CC)(CC)c1ccc(C(=O)N2CCC3(CC2)c2ccc(C(C)=O)n2CCN3C)cc1 [Compound 511]
12,2000 to 5000,CCc1ccc(C(=O)N2CCC3(CC2)c2ccc(Cl)n2CCN3C)cc1OC [Compound 512]
13,≤ 2000,CC[C@@H](C)Oc1ccc(C(=O)N2CCC3(CC2)c2c(F)cc(C(F)(F)F)n2CCN3C)cc1OC [Compound 513]
14,> 5000,COc1ncccc1-c1ccc(C(=O)N2CCC3(CC2)c2ccc(C(=O)C(F)(F)F)n2CCN3C)cc1C [Compound 514]
15,> 5000,Cc1cc(C(=O)N2CCC3(CC2)c2ccc(C(F)(F)F)n2CCN3C)ccc1S(C)(=O)=O [Compound 515]
16,≤ 2000,COc1cc(C(=O)N2CCC3(CC2)c2ccc(C(=O)C(F)(F)F)n2CCN3C)ccc1OCC(C)C [Compound 516]
17,≤ 2000,CN1CCn2c(C(=O)C(F)(F)F)ccc2C12CCN(C(=O)c1ccc(OS(=O)(=O)C(F)(F)F)cc1)CC2 [Compound 517]
18,≤ 2000,CN1CCn2c(C(F)(F)F)ccc2C12CCN(C(=O)c1cccnc1N1CCC(F)C1)CC2 (centres unmarked) [Compound 518]
19,> 5000,CC(=O)c1ccc2n1CCN(C)C21CCN(C(=O)c2ccc(C(C)C)cc2)CC1 [Compound 519]
20,≤ 2000,CC(=O)c1ccc2n1CCN(C)C21CCN(C(=O)c2ccc(OCC(F)(F)F)cc2)CC1 [Compound 520]
21,≤ 2000,COc1ccc(C(=O)N2CCC3(CC2)c2ccc(C(=O)C4CC4)n2CCN3C)cc1C [Compound 521]
22,≤ 2000,CC[C@H](C)Oc1ccc(C(=O)N2CCC3(CC2)NCCn2c(C(F)(F)F)ccc23)cc1OC [Compound 522]
23,≤ 2000,Cc1cc(C(=O)N2CCC3(CC2)c2ccc(C(=O)C(C)(C)C)n2CCN3C)ccc1C(C)(C)O [Compound 523]
24,≤ 2000,Cc1cc(C(=O)N2CCC3(CC2)NCC(C)n2c(C(=O)C(F)(F)F)ccc23)ccc1OC(C)C (centres unmarked) [Compound 524]
25,≤ 2000,CC[C@H](C)Oc1ccc(C(=O)N2CCC3(CC2)c2ccc(C(F)(F)F)n2CCN3C)cc1OC [Compound 525]
26,≤ 2000,Cc1cc(C(=O)N2CCC3(CC2)c2c(C#N)cc(C(F)(F)F)n2CCN3C)ccc1OC(C)C [Compound 526]
